Reference: ChEMBL document CHEMBL6087476, “Positive Charge-Concentrated Dimeric Lipopeptides with Enhanced Protease Resistance: A Potential Solution for Systemic Bacterial Infections” (J Med Chem, 2025)
Values after ≈ are worked out from the molar mass of the structure shown.

Key:
Salmonella typhimurium [1] = assay: Antimicrobial activity against Salmonella typhimurium 7731 assessed as increase in absorbance incubated for 20 to 22 hrs; format: functional, Salmonella enterica subsp. enterica serovar Typhimurium; conditions: Salmonella enterica, time 20-22 hrs
HEK-293T = assay: Cytotoxicity against human HEK293T cells assessed as cell death measured after 18 to 24 hrs by MTT assay; format: functional; conditions: time 18-24 hrs
Staphylococcus aureus [2] = assay: Antimicrobial activity against methicillin-resistant Staphylococcus aureus 43300 assessed as increase in absorbance incubated for 20 to 22 hrs; format: functional; conditions: time 20-22 hrs
Enterococcus faecalis = assay: Antimicrobial activity against Enterococcus faecalis 29212 assessed as increase in absorbance incubated for 20 to 22 hrs; format: functional; conditions: time 20-22 hrs
[3] = Cytotoxicity against porcine IPEC-J2 cells assessed as cell death measured after 18 to 24 hrs by MTT assay; format: functional; conditions: Sus scrofa, time 18-24 hrs
[4] = Hemolytic activity in healthy human RBC assessed as hemolysis incubated for 1 hr by microplate reader; format: toxicity, cell-based; conditions: erythrocyte
Staphylococcus aureus [5] = assay: Antimicrobial activity against Staphylococcus aureus 29213 assessed as increase in absorbance incubated for 20 to 22 hrs; format: functional; conditions: time 20-22 hrs
Escherichia coli [6] = assay: Antimicrobial activity against Escherichia coli K99 assessed as increase in absorbance incubated for 20 to 22 hrs; format: functional; conditions: time 20-22 hrs
Staphylococcus aureus [7] = assay: Antimicrobial activity against Staphylococcus aureus 25923 assessed as increase in absorbance incubated for 20 to 22 hrs; format: functional; conditions: time 20-22 hrs
Pseudomonas aeruginosa [8] = assay: Antimicrobial activity against Pseudomonas aeruginosa 27853 assessed as increase in absorbance incubated for 20 to 22 hrs; format: functional; conditions: time 20-22 hrs
Salmonella typhimurium [9] = assay: Antimicrobial activity against Salmonella typhimurium 14028 assessed as increase in absorbance incubated for 20 to 22 hrs; format: functional, Salmonella enterica subsp. enterica serovar Typhimurium; conditions: Salmonella enterica, time 20-22 hrs
Escherichia coli [10] = assay: Antimicrobial activity against Escherichia coli ATCC 25922 assessed as increase in absorbance incubated for 20 to 22 hrs; format: functional; conditions: time 20-22 hrs
[11] = test system: Staphylococcus epidermidis; assay: Antimicrobial activity against Staphylococcus epidermidis 12228 assessed as increase in absorbance incubated for 20 to 22 hrs; format: functional; conditions: time 20-22 hrs
Escherichia coli [12] = assay: Antimicrobial activity against Escherichia coli K88 assessed as increase in absorbance incubated for 20 to 22 hrs; format: functional; conditions: time 20-22 hrs
RAW264.7 = assay: Cytotoxicity against mouse RAW264.7 cells assessed as cell death measured after 18 to 24 hrs by MTT assay; format: functional; conditions: time 18-24 hrs
Acinetobacter baumannii [13] = assay: Antimicrobial activity against Acinetobacter baumannii AB1901 assessed as increase in absorbance incubated for 20 to 22 hrs; format: functional; conditions: time 20-22 hrs
Acinetobacter baumannii [14] = assay: Antimicrobial activity against Acinetobacter baumannii AB1902 assessed as increase in absorbance incubated for 20 to 22 hrs; format: functional; conditions: time 20-22 hrs
Staphylococcus aureus [15] = assay: Antimicrobial activity against Staphylococcus aureus 11011 assessed as increase in absorbance incubated for 20 to 22 hrs; format: functional; conditions: time 20-22 hrs
Pseudomonas aeruginosa [16] = assay: Antimicrobial activity against Pseudomonas aeruginosa 25349 assessed as increase in absorbance incubated for 20 to 22 hrs; format: functional; conditions: time 20-22 hrs

Row | SMILES | MIC (Salmonella typhimurium [1]) [µM] | IC10 (HEK-293T) [µM] | MIC (Staphylococcus aureus [2]) [µM] | MIC (Enterococcus faecalis) [µM] | IC10 [3] [µM] | HC10 [4] [µM] | MIC (Staphylococcus aureus [5]) [µM] | MIC (Escherichia coli [6]) [µM] | MIC (Staphylococcus aureus [7]) [µM] | MIC (Pseudomonas aeruginosa [8]) [µM] | MIC (Salmonella typhimurium [9]) [µM] | MIC (Escherichia coli [10]) [µM] | MIC [11] [µM] | MIC (Escherichia coli [12]) [µM] | IC10 (RAW264.7) [µM] | MIC (Acinetobacter baumannii [13]) [µM] | MIC (Acinetobacter baumannii [14]) [µM] | MIC (Staphylococcus aureus [15]) [µM] | MIC (Pseudomonas aeruginosa [16]) [µM]
1 | CCCCCCCCCCCC(=O)NCCCC[C@H](N)C(=O)NCC(=O)NCC(=O)NCC(=O)N[C@H](CCCNC(=N)N)C(=O)N[C@@H](CCCNC(=N)N)C(=O)N[C@@H](CCCNC(=N)N)C(=O)N1CCC[C@H]1C(=O)N[C@@H](CS)C(=O)O | 32 (≈ 37.4 µg/mL) | 128 | 64 (≈ 74.8 µg/mL) | 32 (≈ 37.4 µg/mL) | 32 | 64 | 64 (≈ 74.8 µg/mL) | 32 (≈ 37.4 µg/mL) | 64 (≈ 74.8 µg/mL) | 16 (≈ 18.7 µg/mL) | 64 (≈ 74.8 µg/mL) | 16 (≈ 18.7 µg/mL) | 64 (≈ 74.8 µg/mL) | 32 (≈ 37.4 µg/mL) | 64 |  |  |  | 
2 | CC[C@H]1OC(=O)[C@H](C)[C@@H](O[C@H]2C[C@@](C)(OC)[C@@H](O)[C@H](C)O2)[C@H](C)[C@@H](O[C@@H]2O[C@H](C)C[C@H](N(C)C)[C@H]2O)[C@](C)(O)C[C@@H](C)C(=O)[C@H](C)[C@@H](O)[C@]1(C)O [ERYTHROMYCIN] |  |  |  |  |  |  |  |  |  |  |  |  |  |  |  | 64 (≈ 47 µg/mL) | > 64 | > 64 | 64 (≈ 47 µg/mL)
3 | O=C(O)c1cn(C2CC2)c2cc(N3CCNCC3)c(F)cc2c1=O [CIPROFLOXACIN] |  |  |  |  |  |  |  |  |  |  |  |  |  |  |  | 0.25 (≈ 0.0828 µg/mL) | > 64 | > 64 | 0.25 (≈ 0.0828 µg/mL)
4 | CCCCCCCCCC(=O)NCCCC[C@H](NC(=O)[C@@H](N)CS)C(=O)NCC(=O)NCC(=O)NCC(=O)N[C@H](CCCNC(=N)N)C(=O)N[C@@H](CCCNC(=N)N)C(=O)N[C@@H](CCCNC(=N)N)C(=O)N1CCC[C@H]1C(=O)O | 64 (≈ 73 µg/mL) | 256 | 64 (≈ 73 µg/mL) | 64 (≈ 73 µg/mL) | 256 | 256 | 64 (≈ 73 µg/mL) | 32 (≈ 36.5 µg/mL) | 64 (≈ 73 µg/mL) | 16 (≈ 18.2 µg/mL) | 32 (≈ 36.5 µg/mL) | 32 (≈ 36.5 µg/mL) | 128 (≈ 146 µg/mL) | 32 (≈ 36.5 µg/mL) | 256 |  |  |  | 
5 | CCCCCCCCCC(=O)NCCCC[C@H](N)C(=O)NCC(=O)NCC(=O)NCC(=O)N[C@H](CCCNC(=N)N)C(=O)N[C@@H](CCCNC(=N)N)C(=O)N[C@@H](CCCNC(=N)N)C(=O)N1CCC[C@H]1C(=O)N[C@@H](CS)C(=O)O | 32 (≈ 36.5 µg/mL) | 256 | 32 (≈ 36.5 µg/mL) | 32 (≈ 36.5 µg/mL) | 256 | 256 | 32 (≈ 36.5 µg/mL) | 16 (≈ 18.2 µg/mL) | 32 (≈ 36.5 µg/mL) | 8 (≈ 9.12 µg/mL) | 16 (≈ 18.2 µg/mL) | 16 (≈ 18.2 µg/mL) | 32 (≈ 36.5 µg/mL) | 16 (≈ 18.2 µg/mL) | 256 |  |  |  | 
6 | CCCCCCCC(=O)NCCCC[C@H](N)C(=O)NCC(=O)NCC(=O)NCC(=O)N[C@H](CCCNC(=N)N)C(=O)N[C@@H](CCCNC(=N)N)C(=O)N[C@@H](CCCNC(=N)N)C(=O)N1CCC[C@H]1C(=O)N[C@@H](CSSC[C@H](NC(=O)[C@@H]1CCCN1C(=O)[C@H](CCCNC(=N)N)NC(=O)[C@H](CCCNC(=N)N)NC(=O)[C@@H](CCCNC(=N)N)NC(=O)CNC(=O)CNC(=O)CNC(=O)[C@@H](N)CCCCNC(=O)CCCCCCC)C(=O)O)C(=O)O | 4 (≈ 8.89 µg/mL) | 256 | 32 (≈ 71.1 µg/mL) | 64 (≈ 142 µg/mL) | 256 | 256 | 32 (≈ 71.1 µg/mL) | 4 (≈ 8.89 µg/mL) | 32 (≈ 71.1 µg/mL) | 4 (≈ 8.89 µg/mL) | 4 (≈ 8.89 µg/mL) | 2 (≈ 4.45 µg/mL) | 64 (≈ 142 µg/mL) | 4 (≈ 8.89 µg/mL) | 256 |  |  |  | 
7 | CN[C@H](CC(C)C)C(=O)N[C@H]1C(=O)N[C@@H](CC(N)=O)C(=O)N[C@H]2C(=O)N[C@H]3C(=O)N[C@H](C(=O)N[C@H](C(=O)O)c4cc(O)cc(O)c4-c4cc3ccc4O)[C@H](O)c3ccc(c(Cl)c3)Oc3cc2cc(c3O[C@@H]2O[C@H](CO)[C@@H](O)[C@H](O)[C@H]2O[C@H]2C[C@](C)(N)[C@H](O)[C@H](C)O2)Oc2ccc(cc2Cl)[C@H]1O [VANCOMYCIN] |  |  |  |  |  |  |  |  |  |  |  |  |  |  |  | 32 (≈ 46.4 µg/mL) | > 64 | > 64 | > 64
